Laboratory results as given in the supplement of paper PMC9938120.

Key:
Assay in all cases: drug sensitivity score (DSS3, normalised partial AUC of % inhibition dose-response) (DSS (score)); higher = more sensitive (stronger inhibition of viability); extreme values may be limits of the assay
[1] = tested on: FMOC09 (patient-derived high-grade serous ovarian cancer cells); conditions: 72 h; library: FO5A; assay format: 2D, 384-well, CellTiter-Glo
Summary of the method: (§1)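 On 384-well flat clear-bottom plates carrying compounds at five concentrations across a 10,000-fold range, patient-derived ovarian cancer cells below passage 10 were incubated for 72 h at 37 °C with 5% CO2. CellTiter-Glo readout of viability was processed in Breeze. A higher drug sensitivity score, defined as the partial area under the percent-inhibition dose-response curve divided by the log of the upper asymptote, means greater sensitivity.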

[2] = tested on: FMOC25_2 (patient-derived low-grade serous ovarian cancer cells); conditions: 72 h; library: FO5A; assay format: 2D, 384-well, CellTiter-Glo
Summary of the method: as §1

[3] = tested on: FMOC22 (patient-derived mucinous ovarian cancer cells); conditions: 72 h; library: FO5A; assay format: 2D, 384-well, CellTiter-Glo
Summary of the method: as §1

[4] = tested on: FMOC02_2 (patient-derived low-grade serous ovarian cancer cells); conditions: 72 h; library: FO5A; assay format: 2D, 384-well, CellTiter-Glo
Summary of the method: as §1

[5] = tested on: FMOC03 (patient-derived mucinous ovarian cancer cells); conditions: 72 h; library: FO5A; assay format: 2D, 384-well, CellTiter-Glo
Summary of the method: as §1

[6] = tested on: FMOC06 (patient-derived mucinous ovarian cancer cells); conditions: 72 h; library: FO5A; assay format: 2D, 384-well, CellTiter-Glo
Summary of the method: as §1

[7] = tested on: FMOC02_1 (patient-derived low-grade serous ovarian cancer cells); conditions: 72 h; library: FO5A; assay format: 2D, 384-well, CellTiter-Glo
Summary of the method: as §1

[8] = tested on: FMOC17 (patient-derived low-grade serous ovarian cancer cells); conditions: 72 h; library: FO5A; assay format: 2D, 384-well, CellTiter-Glo
Summary of the method: as §1

[9] = tested on: FMOC02_3 (patient-derived low-grade serous ovarian cancer cells); conditions: 72 h; library: FO5A; assay format: 2D, 384-well, CellTiter-Glo
Summary of the method: as §1

[10] = tested on: FMOC14 (patient-derived high-grade serous ovarian cancer cells); conditions: 72 h; library: FO5A; assay format: 2D, 384-well, CellTiter-Glo
Summary of the method: as §1

[11] = tested on: FMOC27 (patient-derived low-grade serous ovarian cancer cells); conditions: 72 h; library: FO5A; assay format: 2D, 384-well, CellTiter-Glo
Summary of the method: as §1

[12] = tested on: FMOC24 (patient-derived high-grade serous ovarian cancer cells); conditions: 72 h; library: FO5A; assay format: 2D, 384-well, CellTiter-Glo
Summary of the method: as §1

[13] = tested on: FMOC11 (patient-derived high-grade serous ovarian cancer cells); conditions: 72 h; library: FO5A; assay format: 2D, 384-well, CellTiter-Glo
Summary of the method: as §1

[14] = tested on: FMOC04 (patient-derived high-grade serous ovarian cancer cells); conditions: 72 h; library: FO5A; assay format: 2D, 384-well, CellTiter-Glo
Summary of the method: as §1

[15] = tested on: FMOC28 (patient-derived low-grade serous ovarian cancer cells); conditions: 72 h; library: FO5A; assay format: 2D, 384-well, CellTiter-Glo
Summary of the method: as §1

[16] = tested on: FMOC25_1 (patient-derived low-grade serous ovarian cancer cells); conditions: 72 h; library: FO4B; assay format: 2D, 384-well, CellTiter-Glo
Summary of the method: as §1

| Compound | drug sensitivity score [1] | drug sensitivity score [2] | drug sensitivity score [3] | drug sensitivity score [4] | drug sensitivity score [5] | drug sensitivity score [6] | drug sensitivity score [7] | drug sensitivity score [8] | drug sensitivity score [9] | drug sensitivity score [10] | drug sensitivity score [11] | drug sensitivity score [12] | drug sensitivity score [13] | drug sensitivity score [14] | drug sensitivity score [15] | drug sensitivity score [16] |
| --- | --- | --- | --- | --- | --- | --- | --- | --- | --- | --- | --- | --- | --- | --- | --- | --- |
| O=C(NCc1ccncc1)C12CC3CC(C1)CC(c1ccc(Cl)cc1)(C3)C2 | 4.2 | 3.1 | 5.2 | 3.2 | 4.5 | 5.6 | 2.6 | 3.1 | 5.3 | 1.6 | 4.1 | 4.7 | 5.8 | 2 | 4.8 | – |
| C[C@H]1CN(C2COC2)CCN1c1ccc(Nc2cc(-c3ccnc(N4CCn5c(cc6c5CC(C)(C)C6)C4=O)c3CO)cn(C)c2=O)nc1 [GDC-0853] | 0 | 0 | 0 | 0 | 0 | 0 | 0 | 0 | 0 | 0 | 0 | 0 | 0 | 0 | 0.4 | – |
| O=c1[nH]c(=O)n([C@H]2C[C@H](O)[C@@H](CO)O2)cc1C(F)(F)F [Trifluridine] | 0 | 0.2 | 0 | 0 | 0 | 1.2 | 0 | 0 | 0 | 0 | 0.5 | 0 | 0.3 | 0 | 0 | – |
| COc1cc(N2CCC(N3CCN(C)CC3)CC2)ccc1Nc1ncc(Cl)c(Nc2ccccc2P(C)(C)=O)n1 [Brigatinib] | 3.8 | 6.4 | 0.5 | 4.3 | 0.9 | 4.7 | 4.4 | 2.9 | 3.7 | 1.7 | 1.7 | 2.8 | 1 | 1.75 | 4.8 | – |
| CC(C)(C)c1cnc(CSc2cnc(NC(=O)C3CCNCC3)s2)o1 [SNS-032] | 11.6 | 25.4 | 12 | 19.4 | 17.4 | 23.2 | – | – | 25.5 | 17.9 | – | 17.9 | – | – | – | 20.8 |
| CC[C@H](CC#N)OC(=O)N[C@@H](C)c1cccc(NC(=O)Nc2ccc(-c3cnco3)c(OC)c2)c1 [AVN944] | 11.2 | 10.3 | 14.2 | 9.8 | 13.4 | 13.4 | – | – | 12.6 | 11 | – | 6.45 | – | – | – | 9.7 |
| CN(C)C/C=C/C(=O)Nc1cc2c(Nc3ccc(F)c(Cl)c3)ncnc2cc1O[C@H]1CCOC1 [Afatinib] | 14.4 | 16.9 | 0.3 | 17.5 | 17 | 4.3 | – | – | 18.2 | 7.7 | – | 2.75 | – | – | – | 10.4 |
| NS(=O)(=O)OC[C@@H]1C[C@@H](n2ccc3c(N[C@H]4CCc5ccccc54)ncnc32)C[C@@H]1O [Pevonedistat] | 10.1 | 20.5 | 12.6 | 10.2 | 8.2 | 4.1 | – | – | 10.6 | 0.3 | – | 10.7 | – | – | – | 11.5 |
| CNC(=O)c1ccccc1Nc1cc(Nc2ccc(N3CCOCC3)cc2OC)ncc1C(F)(F)F [VS-4718] | 11.5 | 12.6 | 6 | 12 | 4.2 | 9.6 | – | – | 13.8 | 0.7 | – | 3.2 | – | – | – | 6.1 |
| Cc1cc(OCc2nnc(SC3CCCC3)n2-c2cccnc2)ccc1-c1ccc(S(C)(=O)=O)cc1 [NMS-873] | 5.3 | 9.6 | 8.8 | 8.3 | 9 | 8 | – | – | 10 | 9.2 | – | 9.15 | – | – | – | 8.9 |
| CCN(CC)CCCC(C)Nc1c2ccc(Cl)cc2nc2ccc(OC)cc12 (stereo not given) [Mepacrine] | 10.3 | 10.9 | 9.2 | 19.4 | 9.5 | 10 | – | – | 19.4 | 9.8 | – | 20.2 | – | – | – | 10.3 |
| CC(C)C[C@H](NC(=O)[C@H](Cc1ccccc1)NC(=O)c1cnccn1)B(O)O [Bortezomib] | 20.4 | 30.1 | 28.4 | 28.8 | 28.2 | 26.2 | – | – | 24.9 | 28.5 | – | 30.8 | – | – | – | 27.2 |
| COc1cc(Br)c(Nc2nc(-c3c(C)nc4ncccn34)cs2)c(Br)c1 [PTC-209] | 6 | 8.4 | 4.5 | 5.5 | 4.6 | 3.5 | – | – | 4.6 | 2.7 | – | 1.35 | – | – | – | 6.3 |
| O=C(NOCCO)c1ccc2cncn2c1Nc1ccc(I)cc1F [GDC-0623] | 4 | 11.2 | 7.2 | 7.3 | 1.3 | 6.1 | – | – | 5.3 | 0.1 | – | 1.35 | – | – | – | 9.6 |
| O=C(Nc1ccncc1)C(=O)c1cn(Cc2ccc(Cl)cc2)c2ccccc12 [Indibulin] | 4.7 | 9.2 | 3.4 | 10.9 | 4.3 | 1.3 | – | – | 9.6 | 0 | – | 6 | – | – | – | 5.5 |
| C[C@@H]1COC(Nc2ccc3ncnc(Nc4ccc(OCc5nccs5)c(Cl)c4)c3c2)=N1 [Varlitinib] | 6.5 | 5.1 | 0.1 | 12.5 | 9 | 0.3 | – | – | 6.3 | 0.5 | – | 0.5 | – | – | – | 8.3 |
| CO[C@@H](C(=O)N1Cc2[nH]nc(NC(=O)c3ccc(N4CCN(C)CC4)cc3)c2C1)c1ccccc1 [Danusertib] | 8.7 | 8 | 0 | 5.7 | 4.7 | 4.7 | – | – | 10.1 | 1.4 | – | 4.3 | – | – | – | 3.1 |
| CC/C(=C(\c1ccc(O)cc1)c1ccc(OCCN(C)C)cc1)c1ccccc1 [4-hydroxytamoxifen] | 5.1 | 3.2 | 5.7 | 6.8 | 6.1 | 7.3 | – | – | 6.4 | 6.1 | – | 7.3 | – | – | – | 2 |
| C[C@@H](Oc1cc(-n2cnc3ccc(CN4CCN(C)CC4)cc32)sc1C(N)=O)c1ccccc1C(F)(F)F | 12.6 | 11.9 | 11.5 | 8.2 | 7.3 | 5.3 | – | – | 9.1 | 3.9 | – | 6.1 | – | – | – | 7.4 |
| CC[C@@H]1C(=O)N(C)c2cnc(Nc3ccc(C(=O)N[C@H]4CC[C@H](N5CCN(CC6CC6)CC5)CC4)cc3OC)nc2N1C(C)C [Volasertib] | 5.1 | 8.5 | 3.9 | 6.1 | 3.5 | 1.2 | – | – | 7.6 | 0.4 | – | 2.9 | – | – | – | 3.2 |
| CCOC(=O)CCNc1cc(N2CCc3ccccc3CC2)nc(-c2ccccn2)n1 [GSK-J4] | 0 | 7.5 | 4.3 | 0 | 3.2 | 4 | – | – | 3.2 | 1.3 | – | 3.9 | – | – | – | 6.7 |
| CNC(=O)c1ccccc1Nc1nc(Nc2ccc3c(c2OC)CCC[C@H](N2CCN(CCO)CC2)C3)ncc1Cl | 8.3 | 10.3 | 7.1 | 11.1 | 7.2 | 10.3 | – | – | 11.7 | 6 | – | 5.95 | – | – | – | 9 |
| Nc1ncn([C@@H]2O[C@H](CO)[C@@H](O)[C@H]2O)c(=O)n1 [Azacitidine] | 4.1 | 3 | 3.7 | 5.7 | 1.8 | 1.3 | – | – | 4.7 | 5 | – | 14.2 | – | – | – | 3.2 |
| C1=N/C2=N/c3ccc(OCCN4CCCC4)c(c3)COC/C=C/COCc3cccc(c3)C(=C1)N2 [Pacritinib] | 5.5 | 15.2 | 6.2 | 10.1 | 6.7 | 7.6 | – | – | 15.2 | 5.2 | – | 7.95 | – | – | – | 7.8 |
| Cc1nn(C)c(COc2ccc(N3CCN(S(=O)(=O)N(C)C)CC3)cc2)c1-c1cccc2c(CCCOc3cccc4ccccc34)c(C(=O)O)n(CCN3CCOCC3)c12 | 5.9 | 4.7 | 8.2 | 6 | 5.9 | 7 | – | – | 7.5 | 7.6 | – | 6.7 | – | – | – | 5.6 |
| Cc1[nH]c2ccccc2c1CCNCc1ccc(/C=C/C(=O)NO)cc1 [Panobinostat] | 5.5 | 15.2 | 9.1 | 12.6 | 11.1 | 12.8 | – | – | 10.7 | 15.4 | – | 13.3 | – | – | – | 11.2 |
| O=C(c1ccc(F)c(F)c1Nc1ccc(I)cc1F)N1CC(O)([C@@H]2CCCCN2)C1 [Cobimetinib] | 6.1 | 9.2 | 7.5 | 13.3 | 10.3 | 9 | – | – | 13.7 | 0.1 | – | 1.8 | – | – | – | 10 |
| CO[C@H]1C(=O)[C@]2(C)[C@@H](OC)C[C@H]3OC[C@@]3(OC(C)=O)[C@H]2[C@H](OC(=O)c2ccccc2)[C@]2(O)C[C@H](OC(=O)[C@H](O)[C@@H](NC(=O)OC(C)(C)C)c3ccccc3)C(C)=C1C2(C)C [Cabazitaxel] | 13.5 | 17.3 | 15.2 | 12.6 | 16 | 11.3 | – | – | 19.9 | 0 | – | 0.3 | – | – | – | 12 |
| CC(C)[C@H]1C(=O)N[C@@H](CCCNC(=N)N)C(=O)NCC(=O)N[C@@H](CC(=O)O)C(=O)N[C@H](Cc2ccccc2)C(=O)N1C [Cilengitide] | 4.3 | 0 | 0 | 0 | 0.1 | 0 | – | – | 1.3 | 1.9 | – | 2.4 | – | – | – | 0 |
| O=C(NOC[C@H](O)CO)c1ccc(F)c(F)c1Nc1ccc(I)cc1F | 8 | 5.2 | 7.5 | 10.4 | 11.5 | 11.3 | – | – | 7 | 0.2 | – | 0.2 | – | – | – | 7 |
